{"source": "paper PMC6801514", "about": "“Structural and Functional Characterization of Three Novel Fungal Amylases with Enhanced Stability and pH Tolerance” (International Journal of Molecular Sciences, 2019)", "target": "T1, CfAM (Cordyceps farinosa, UniProt A0A5S8WFA8)", "T1 construct": "A, B and C domains (native enzyme lacks CBM20); secreted from Aspergillus oryzae MT3568, mature about 48 kDa, no tag told; two monomers in the asymmetric unit", "T1 sequence (A0A5S8WFA8 19-460)": "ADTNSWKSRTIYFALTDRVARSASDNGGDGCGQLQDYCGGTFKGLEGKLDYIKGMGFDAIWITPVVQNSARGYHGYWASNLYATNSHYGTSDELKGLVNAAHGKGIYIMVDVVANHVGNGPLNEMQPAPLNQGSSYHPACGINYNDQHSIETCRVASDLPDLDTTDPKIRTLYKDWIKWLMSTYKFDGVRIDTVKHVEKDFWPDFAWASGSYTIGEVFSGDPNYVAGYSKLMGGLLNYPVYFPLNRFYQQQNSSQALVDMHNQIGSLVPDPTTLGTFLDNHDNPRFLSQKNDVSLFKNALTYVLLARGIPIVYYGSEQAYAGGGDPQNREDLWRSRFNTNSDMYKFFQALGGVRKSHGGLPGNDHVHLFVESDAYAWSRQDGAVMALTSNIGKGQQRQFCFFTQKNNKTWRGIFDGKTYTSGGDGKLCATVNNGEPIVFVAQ", "test": "X-ray crystallography, […] Å", "type": "binding", "settings": "co-crystallised with 40 mM acarbose, 12% PEG 3350, 0.2 M NaNO3, CAPS pH 11.0; active-site cleft, subsites -4 to +3; ligand formed from acarbose in crystallo crystal (acarbose added, no maltose additio)", "data": [{"compound": "OC[C@H]1O[C@H](O[C@H]2[C@H](O)[C@@H](O)C(O)O[C@@H]2CO)[C@H](O)[C@@H](O)[C@@H]1O", "note": "(stereo partly shown) [maltose]", "values": [{"measurement": "X-ray crystallography, 1.35 Å", "value": "a secondary binding site in domain C was identified and modelled as maltose"}]}]}
